# Reference: patent publication EP0005055A2, “6,11-Dihydrodibenzo-thiepin-11-ones and their S-oxides, methods for their preparation and pharmaceutical compositions containing them” (SYNTEX (U.S.A.) INC., priority 1978, dated 1979)
# Key:
# [1] = Mouse Acute Oral Toxicity (LD50); settings: in vivo, oral by stomach tube, single dose, mice observed for deaths over 14 days
# Procedure: B) Mouse Acute Oral Toxicity (LD50)
# Protocol: The test material is suspended in an aqueous vehicle containing carboxymethyl cellulose. A volume of 10 ml/kg body weight is used for each dose. The test material is given orally by stomach tube to 24 male Swiss-Webster mice, 6 per group, on the first day of the test, using doses of 250, 500, 1000 and 2000 mg./kg. body weight of test compound. Another group of 6 mice, receiving the vehicle only, serve as the control. The mice are observed for deaths over a 14-day period.
# Albino rats = assay: Heat Induced Dermal Trauma Assay; format: in vivo; settings: topical in ethanol, treatment 0 post burn, skin disc weighed 3 hours later, 6 rats, control 500.7±13.6
# Procedure: A) Heat Induced Dermal Trauma Assay ,
# Test Animal: Albino rats, 120-140 g.
# Procedure: The ventral area of the rats is shaved and depilated with a commercially available depilatory on the afternoon of the day prior to trauma. (The depilatory is applied for 15 minutes and then removed by washing with water.) The following day, a 25 mm diameter circle is traced on the abdomen beneath the sternum with a colored pen. A brass stamp of the same size, through which hot water (53°C) is circulated, is firmly applied to the center of the colored outline for 45 seconds while the rats are lightly anesthetized with ether. The test materials in ethanol are administered topically to the tramatized area immediately after withdrawing the stamp. The animals are sacrificed 3 hours later, at which time the ventral skin is removed and a piece of skin form the center of the marked area is punched out with a No. 10 cork bore and weighed.
# End Point: The weight in mg of the inflammed piece of skin which is removed from the marked area with the cork bore.
SMILES,LD50 at 336 h [1] [mg/kg],Mean Disc. Wt. mg.± S.E. (Albino rats; dose 0.006 mg.) [mg],Mean Disc. Wt. mg.± S.E. (Albino rats; dose 0.025 mg.) [mg],Mean Disc. Wt. mg.± S.E. (Albino rats; dose 0.1 mg.) [mg],Mean Disc. Wt. mg.± S.E. (Albino rats; dose 0.4 mg.) [mg]
"O=C(O)Cc1ccc2c(c1)[S+]([O-])Cc1ccccc1C2=O (stereo not shown) [6,11-dihydrodibenzo-[b.e]-thiepin-11-one-3-acetic S-oxide]",> 2000,–,–,–,–
"O=C(O)Cc1ccc2c(c1)SCc1cc(Cl)ccc1C2=O [8-chloro-6,11-dihydrodibenzo-[b.e.]-thiepin-11-one-3-acetic acid]",~300,296.8 ± 21.8,218.8 ± 6.5,201.4 ± 12.0,147.2 ± 10.2
"COc1ccc2c(c1)CSc1cc(CC(=O)O)ccc1C2=O [8-methoxy-6,11-dihydro-dibenzo-[b.e.]-thiepin-11-one-3-acetic acid]",–,279.6 ± 13.17,241.6 ± 7.56,197.5 ± 25.07,177.9 ± 18.98
